Assay results reported in PMC12713704, “Crystal structure of fatty acid thioesterase A bound by 129 fragments provides diverse development opportunities” (Pest Management Science, 2025).
Several values for one entry are separate records, joined by “and”; a condition that tells them apart may be missing. Equal values may be shown once. Read-outs that look alike come from different tables or passages of the source.

Assays:
FatA (AtFatA) [1] = biological target: T1, FatA (AtFatA) (Arabidopsis thaliana, UniProt Q42561); assay: biochemical; parameters: SPR (Biacore 8K, immobilized His-tagged FatA), steady-state affinity and 1:1 kinetic fits, 20 °C; details: for kon: read-out: ka (1/Ms), kinetic fit; for koff: read-out: kd (1/s), kinetic fit; for ka / kd: kinetic fit; for ka: ka (1/Ms); for kd: kd (1/s)
T1 construct: residues 1-74 (chloroplast transit peptide) removed; noncleavable C-terminal His6 tag; codon-optimised gene in pET-24a(+), E. coli BL21(DE3); dimer by native mass spectrometry
T1 sequence (Q42561 75-362): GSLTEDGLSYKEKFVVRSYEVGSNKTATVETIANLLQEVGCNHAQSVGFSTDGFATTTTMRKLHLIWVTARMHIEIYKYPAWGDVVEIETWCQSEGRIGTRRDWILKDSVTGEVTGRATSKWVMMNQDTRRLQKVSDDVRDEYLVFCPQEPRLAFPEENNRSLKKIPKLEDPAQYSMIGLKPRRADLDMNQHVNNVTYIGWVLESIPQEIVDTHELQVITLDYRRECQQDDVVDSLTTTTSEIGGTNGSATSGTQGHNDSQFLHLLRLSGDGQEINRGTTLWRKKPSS
Excerpt: The analogues were used to explore the binding capabilities of the herbicide pocket as well as tolerance to heterocyclic ring size. […] The resulting 60 compounds were either purchased from Enamine REAL or synthesized in‐house. […] Chemical structures of all x1816 analogues tested are available in Data S1. Binding data can be found in Data S2.

FatA (AtFatA) [2] = biological target: T1, FatA (AtFatA); assay: biochemical; parameters: SPR (Biacore 8K), His-captured FatA; steady-state affinity KD and kinetic fit (1:1 model); details: steady-state affinity fit
Procedure: FatA was immobilized on an NTA sensor chip (GE Healthcare, Chicago, IL, USA) using a Biacore 8K, captured via His‐tag and simultaneous amine coupling on EDC/NHS‐activated carboxyl groups (Immobilization buffer: 25 mM HEPES pH 7.4, 150 mM NaCl, 1 mM TCEP, 0.05% Tween 20). Equilibrium binding experiments were performed at 20 °C using a Biacore 8K instrument (GE Healthcare) with 25 mM HEPES pH 7.4, 150 mM NaCl, 1 mM TCEP, 0.05% Tween 20 and 2% DMSO as running buffer for compound testing. Compounds were injected over the chip in two‐fold dilution series either in multi‐cycle mode (60s/180s association/dissociation time) or single‐cycle kinetic mode (160 s/1800s association/dissociation time). Indicative K D values were obtained by steady‐state affinity fitting to a 1:1 binding site model.

FatA (AtFatA) [3] = biological target: T1, FatA (AtFatA); assay: X-ray crystal structure, fragment soak; details: crystal soak […], […] DMSO, pH […]; herbicide binding site
FatA (AtFatA) [4] = biological target: T1, FatA (AtFatA); assay: fluorescent CPM detection of CoA released from oleoyl-CoA; assay type: biochemical
FatA (AtFatA) [5] = biological target: T1, FatA (AtFatA); assay: SPR, steady-state […] fit, His-captured and amine-coupled FatA; assay type: binding

Structure (SMILES) | Kd (FatA (AtFatA) [1]) | kon (FatA (AtFatA) [1]) | koff (FatA (AtFatA) [1]) | further results
CC(=O)N1CC(C)(CO)Cc2ccccc21 (stereo not shown) [x1816-FU11] | 3.13 µM | 8170 M⁻¹ s⁻¹ | 0.0256 s⁻¹ | 
CC(=O)N1CCCc2cccc(F)c21 [x1816-FU10] | 3.1 µM | 50900 M⁻¹ s⁻¹ | 0.158 s⁻¹ | 
COCC(=O)N1c2ccccc2CCC1C (stereo not shown) [x1816-FU12] | 4.42 µM | 20000 M⁻¹ s⁻¹ | 0.0885 s⁻¹ | 
CC(=O)N1c2ccccc2C(C)(C)CC1C (stereo not shown) [x1816-FU58] |  |  |  | Kd (FatA (AtFatA) [2]): > 100 µM
CC1CCc2ccccc2N1C(=O)NC(C)(C)C (stereo not shown) [x1816-FU44] |  |  |  | Kd (FatA (AtFatA) [2]): 91.5 µM
COCC(=O)N1CC(C)(C)c2ccccc21 [x1816-FU42] |  |  |  | Kd (FatA (AtFatA) [2]): 57.7 µM
CCCC(=O)N1c2ccccc2CCC1C (stereo not shown) [x1816-FU4_repeat] |  |  |  | ka (FatA (AtFatA) [1]): 12300 M⁻¹ s⁻¹ and 10600 M⁻¹ s⁻¹; kd (FatA (AtFatA) [1]): 0.0147 s⁻¹ and 0.0135 s⁻¹
CC(=O)N1CCN(C)c2ncccc21 [x1816-FU56] |  |  |  | Kd (FatA (AtFatA) [2]): > 100 µM
CC(=O)N1c2ccccc2OCC1C (stereo not shown) [x1816-FU5] | 1.55 µM | 45000 M⁻¹ s⁻¹ | 0.0695 s⁻¹ | 
CCC(=O)N1CCCc2ccccc2C1 [x1816-FU2_repeat] |  |  |  | ka (FatA (AtFatA) [1]): 163000 M⁻¹ s⁻¹ and 124000 M⁻¹ s⁻¹; kd (FatA (AtFatA) [1]): 0.0811 s⁻¹ and 0.0645 s⁻¹
Cc1cccc(C(=O)O)c1N [x1437] |  |  |  | X-ray crystal structure, fragment soak (FatA (AtFatA) [3]): x1290 and x1437 which share a similar chemical motif and are both bound
CC(=O)N1CCCc2c(Cl)ccc(F)c21 [x1816-FU9] | 3.06 µM | 59600 M⁻¹ s⁻¹ | 0.182 s⁻¹ | 
CC(=O)N1CCC(C)c2ccccc21 (stereo not shown) [x1816-FU45] |  |  |  | Kd (FatA (AtFatA) [2]): 93.8 µM
CC1CCc2ccccc2N1C(=O)CC(C)(C)C (stereo not shown) [x1816-FU14] | 19.9 µM | 3010 M⁻¹ s⁻¹ | 0.06 s⁻¹ | 
NS(=O)(=O)c1nc2ccccc2[nH]1 [x1168/x1231] |  |  |  | IC50 (FatA (AtFatA) [4]; […] oleoyl-CoA, […] FatA, pH […], room temperature, active site (also dimer site), unreliable): > 250 µM
CCC(=O)N1CCCc2ccccc2C1 [x1816-FU2] | 0.156 µM |  | 0.0502 s⁻¹ | ka (FatA (AtFatA) [1]): 321361.600232 M⁻¹ s⁻¹
CC(=O)N1CC(C)(C)c2ccccc21 [x1816-FU57] |  |  |  | Kd (FatA (AtFatA) [2]): > 100 µM

Structure (SMILES) | Kd (FatA (AtFatA) [1]) | kon (FatA (AtFatA) [1]) | koff (FatA (AtFatA) [1]) | further results
O=C(O)c1sccc1-n1cccc1 [x1425] |  |  |  | IC50 (FatA (AtFatA) [4]): > 250 µM
CCCC(=O)N1c2ccccc2CCC1C (stereo not shown) [x1816-FU4] | 1.16 µM | 10100 M⁻¹ s⁻¹ | 0.0117 s⁻¹ | 
CCC(=O)N1c2ccccc2CCC1C (stereo not shown) [x1816-FU8] | 2.47 µM | 13900 M⁻¹ s⁻¹ | 0.0343 s⁻¹ | 
CC(=O)N1c2ccccc2C(C)CC1(C)C (stereo not shown) [x1816-FU54] |  |  |  | Kd (FatA (AtFatA) [2]): > 100 µM
CC(=O)N1CCCc2ncccc21 [x1816-FU60] |  |  |  | Kd (FatA (AtFatA) [2]): > 100 µM
CNCC1COc2ccccc2O1 (stereo not shown) [x2004] |  |  |  | IC50 (FatA (AtFatA) [4]): 25.6 µM
CC(=O)N1CCSc2ccccc2C1 [x1816-FU1_repeat] |  |  |  | ka (FatA (AtFatA) [1]): 367000 M⁻¹ s⁻¹ and 305000 M⁻¹ s⁻¹; kd (FatA (AtFatA) [1]): 0.0326 s⁻¹ and 0.0293 s⁻¹
O=C(Nc1ccccc1)N1CCCCCC1 [x1944*] |  |  |  | IC50 (FatA (AtFatA) [4]): 43.9 µM
CNC1CCN(c2ccccc2F)C1=O (stereo not shown) [x1573] |  |  |  | IC50 (FatA (AtFatA) [4]): 29 µM
CC(=O)N1CCCc2cccnc21 [x1816-FU59] |  |  |  | Kd (FatA (AtFatA) [2]): > 100 µM
CC(C)CC(=O)N1c2ccccc2CCC1C (stereo not shown) [x1816-FU13] | 8.7 µM | 8080 M⁻¹ s⁻¹ | 0.0703 s⁻¹ | 
Nc1ccc2oc(=O)ccc2c1 [x1463] |  |  |  | IC50 (FatA (AtFatA) [4]): 142 µM
CC(C)C(=O)N1c2ccccc2CCC1C (stereo not shown) [x1816-FU6] | 1.63 µM | 13600 M⁻¹ s⁻¹ | 0.0222 s⁻¹ | 
CC(=O)N1CCSc2ccccc2C1 [x1816-FU1] | 0.0741 µM | 463000 M⁻¹ s⁻¹ | 0.0343 s⁻¹ | Kd (FatA (AtFatA) [5]): ~0.09 µM
Nc1cc(F)ccc1C(=O)O [x1290] |  |  |  | X-ray crystal structure, fragment soak (FatA (AtFatA) [3]): x1290 and x1437 which share a similar chemical motif and are both bound
CCC(C)C(=O)N1c2ccccc2CCC1C (stereo not shown) [x1816-FU7] | 1.96 µM | 4150 M⁻¹ s⁻¹ | 0.00811 s⁻¹ | 
CCC1CCc2ccccc2N1C(C)=O (stereo not shown) [x1816-FU43] |  |  |  | Kd (FatA (AtFatA) [2]): 68.1 µM
